Test results: patent US11945822B2, “Pyrazolo-triazine and/or pyrazolo-pxrimidine derivatives as selective inhibitor of cyclin dependent kinase” (QURIENT CO., LTD., priority 2018, dated 2024)

Columns and labels:
CDK2/Cyclin A = molecular target: T1, CDK2/Cyclin A (Homo sapiens, UniProt P24941); test: Enzymatic assay for CDK2 (FRET based LANCE Ultra kinase assay); format: biochemical; conditions: read-out: CDK2 enzymatic activity (IC50 range)
T1 construct: purchased Invitrogen PV6290
In short: (§1)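 TR-FRET (LANCE Ultra) kinase assay at ATP Km, ULight-MBP peptide substrate (68 nM), 8-dose 4-fold compound series in DMSO. Enzymes: […]; 60 min at 23° C., stopped with EDTA plus Eu-anti-phospho-MBP antibody, read 665/615 nm after 60 min.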

RPMI-8226 = test: Cellular RPMI-8226 viability assay (CellTiter-Glo, 72 hours); format: cell-based; conditions: Homo sapiens
Protocol: All cell lines were routinely tested for mycoplasma.
The effect of the CDK7 inhibitor to inhibit the growth of target cancer cells was evaluated through the 72 hours time period of viability assay. Briefly, the candidate cell line ware plated in 96 well plate at the following density of cells respectively. […] DMSO solvent without compound served as a control and final DMSO concentration less than 0.1%. After 72 hours of incubation at 37° C., 5% CO2 incubator, cells were analyzed for the viability using the CellTiter-Glo Luminescent Cell Viability Assay (Promega, Cat #G7570). All viability assays were performed in duplicate and Luminescence was read using an Envision (Perkin Elmer, USA). Data was analyzed using XLfit software.

CDK1/Cyclin B = molecular target: T2, CDK1/Cyclin B (Homo sapiens, UniProt P06493); test: Enzymatic assay for CDK1 (FRET based LANCE Ultra kinase assay); format: biochemical; conditions: read-out: CDK1 enzymatic activity (IC50 range)
T2 construct: purchased Invitrogen PR4768C
In short: as §1

H460 = test: Cellular H460 viability assay (CellTiter-Glo, 72 hours); format: cell-based; conditions: Homo sapiens, NCI-H460
In short: (§2)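 Cells were plated at line-specific densities and exposed to compound for 72 hours at 37 °C, 5% CO2, with DMSO-only wells as control (final DMSO below 0.1%). Viability was measured by CellTiter-Glo luminescence in duplicate.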

CDK5/p25 = molecular target: T3, CDK5/p25 (Homo sapiens, UniProt Q00535); test: Enzymatic assay for CDK5 (FRET based LANCE Ultra kinase assay); format: biochemical; conditions: read-out: CDK5 enzymatic activity (IC50 range)
T3 construct: purchased Invitrogen PR8543B
In short: as §1

CDK7/Cyclin H/MNAT1 = molecular target: T4, CDK7/Cyclin H/MNAT1 (Homo sapiens, UniProt P50613); test: Enzymatic assay for CDK7 (FRET based LANCE Ultra kinase assay); format: biochemical; conditions: for IC50: read-out: CDK7 enzymatic activity (IC50 range)
T4 construct: purchased Invitrogen PR6749B
In short: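 LANCE Ultra TR-FRET kinase assay using a ULight-labeled peptide substrate and a Eu-labeled anti-phospho antibody, with ATP at its Km. Purified CDK/cyclin complex was added to compound after brief centrifugation.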

MV4-11 = test: Cellular MV4-11 viability assay (CellTiter-Glo, 72 hours); format: cell-based; conditions: Homo sapiens
In short: as §2

HCT116 = test: Cellular HCT116 viability assay (CellTiter-Glo, 72 hours); format: cell-based; conditions: Homo sapiens, HCT-116
In short: as §2

T4 sequence (P50613 whole entry): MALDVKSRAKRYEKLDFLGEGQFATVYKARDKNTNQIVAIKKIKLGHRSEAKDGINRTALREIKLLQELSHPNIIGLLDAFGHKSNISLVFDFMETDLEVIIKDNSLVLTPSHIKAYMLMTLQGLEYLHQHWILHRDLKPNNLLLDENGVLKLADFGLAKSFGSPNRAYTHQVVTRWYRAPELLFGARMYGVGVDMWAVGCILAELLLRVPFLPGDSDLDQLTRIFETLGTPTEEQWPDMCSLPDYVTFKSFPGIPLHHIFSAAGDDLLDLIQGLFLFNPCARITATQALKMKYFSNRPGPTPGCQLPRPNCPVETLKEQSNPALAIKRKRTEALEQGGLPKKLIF
T4 sequence (P51946 whole entry partner): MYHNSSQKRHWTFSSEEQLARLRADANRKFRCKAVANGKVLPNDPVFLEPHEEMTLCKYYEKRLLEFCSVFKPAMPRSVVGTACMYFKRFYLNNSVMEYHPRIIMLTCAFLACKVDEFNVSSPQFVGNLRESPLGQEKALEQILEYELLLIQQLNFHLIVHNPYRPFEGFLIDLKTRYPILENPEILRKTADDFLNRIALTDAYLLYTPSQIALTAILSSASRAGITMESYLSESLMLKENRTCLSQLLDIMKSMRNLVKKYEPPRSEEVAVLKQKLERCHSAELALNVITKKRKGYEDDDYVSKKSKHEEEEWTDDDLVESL
T4 sequence (P51948 whole entry partner): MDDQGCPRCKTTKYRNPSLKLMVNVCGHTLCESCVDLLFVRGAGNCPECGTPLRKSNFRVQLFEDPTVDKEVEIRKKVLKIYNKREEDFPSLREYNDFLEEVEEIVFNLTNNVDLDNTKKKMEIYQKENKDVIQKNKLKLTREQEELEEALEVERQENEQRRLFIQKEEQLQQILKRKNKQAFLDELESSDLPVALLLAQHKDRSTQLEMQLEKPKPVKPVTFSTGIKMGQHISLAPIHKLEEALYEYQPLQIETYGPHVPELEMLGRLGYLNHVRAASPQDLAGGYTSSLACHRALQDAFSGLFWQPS
T2 sequence (P06493 whole entry): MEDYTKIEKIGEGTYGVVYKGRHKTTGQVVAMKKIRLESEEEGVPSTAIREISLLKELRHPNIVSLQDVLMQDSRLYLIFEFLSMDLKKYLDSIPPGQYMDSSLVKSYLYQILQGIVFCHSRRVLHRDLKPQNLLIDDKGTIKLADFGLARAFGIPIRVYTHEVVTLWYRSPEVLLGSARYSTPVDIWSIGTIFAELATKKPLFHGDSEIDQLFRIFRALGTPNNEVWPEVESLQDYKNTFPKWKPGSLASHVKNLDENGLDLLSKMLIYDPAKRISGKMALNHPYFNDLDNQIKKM
T2 sequence (P14635 whole entry partner): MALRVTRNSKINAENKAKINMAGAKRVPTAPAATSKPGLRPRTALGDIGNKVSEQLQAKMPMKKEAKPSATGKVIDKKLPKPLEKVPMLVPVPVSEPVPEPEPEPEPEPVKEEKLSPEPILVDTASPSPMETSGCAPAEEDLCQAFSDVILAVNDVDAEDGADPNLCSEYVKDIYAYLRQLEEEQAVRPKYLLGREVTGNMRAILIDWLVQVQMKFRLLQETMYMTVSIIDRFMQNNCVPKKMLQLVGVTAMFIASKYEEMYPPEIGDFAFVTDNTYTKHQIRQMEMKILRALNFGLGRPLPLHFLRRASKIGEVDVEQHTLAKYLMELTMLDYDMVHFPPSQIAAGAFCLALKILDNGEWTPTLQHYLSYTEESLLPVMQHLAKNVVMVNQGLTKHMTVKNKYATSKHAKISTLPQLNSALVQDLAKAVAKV
T3 sequence (Q00535 whole entry): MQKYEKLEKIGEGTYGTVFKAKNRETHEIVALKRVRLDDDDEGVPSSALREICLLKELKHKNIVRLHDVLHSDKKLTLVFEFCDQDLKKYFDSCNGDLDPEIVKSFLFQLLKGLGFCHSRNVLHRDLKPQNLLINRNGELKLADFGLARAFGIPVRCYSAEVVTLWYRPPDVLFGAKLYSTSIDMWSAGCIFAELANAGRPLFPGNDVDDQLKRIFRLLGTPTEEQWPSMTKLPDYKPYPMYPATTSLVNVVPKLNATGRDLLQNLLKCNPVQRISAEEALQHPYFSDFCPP
T3 sequence (Q15078 99-307 partner limits assumed): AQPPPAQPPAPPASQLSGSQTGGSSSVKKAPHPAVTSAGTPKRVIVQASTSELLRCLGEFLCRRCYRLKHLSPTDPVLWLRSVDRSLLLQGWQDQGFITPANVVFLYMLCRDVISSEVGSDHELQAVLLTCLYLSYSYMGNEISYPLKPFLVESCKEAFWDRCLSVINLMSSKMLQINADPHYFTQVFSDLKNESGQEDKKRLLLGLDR

| SMILES | IC50 (CDK2/Cyclin A) [µM] | IC50 (RPMI-8226) [µM] | IC50 (CDK1/Cyclin B) [µM] | IC50 (H460) [µM] | IC50 (CDK5/p25) [µM] | CDK1/CDK7: Selectivity of CDK7 inhibition over CDK1 inhibition (CDK7/Cyclin H/MNAT1) | CDK2/CDK7: Selectivity of CDK7 inhibition over CDK2 inhibition (CDK7/Cyclin H/MNAT1) | CDK5/CDK7: Selectivity of CDK7 inhibition over CDK5 inhibition (CDK7/Cyclin H/MNAT1) | IC50 (CDK7/Cyclin H/MNAT1) [µM] | IC50 (MV4-11) [µM] | IC50 (HCT116) [µM] |
| --- | --- | --- | --- | --- | --- | --- | --- | --- | --- | --- | --- |
| CC(C)c1cnn2c(NCc3cccc(-c4cc5ccccc5[nH]4)c3)nc(N3CCC(N)CC3)nc12 [Compound 118] | 0.1 to 1 | < 1 | > 1 | < 1 | 0.1 to 1 | B (B=less than 200 fold, but greater than 20 fold) | B (B=less than 200 fold, but greater than 20 fold) | B (B=less than 200 fold, but greater than 20 fold) | < 0.1 |  |  |
| CC(C)c1cnn2c(NCc3ccccc3-c3[nH]c4ccccc4c3Cl)nc(N3CCC(N)CC3)nc12 [Compound 119] | 0.1 to 1 | 1 to 10 | > 1 | < 1 | 0.1 to 1 | A (A=greater than 200 fold) | B (B=less than 200 fold, but greater than 20 fold) | B (B=less than 200 fold, but greater than 20 fold) | < 0.1 | 1 to 10 |  |
| CC(C)c1cnn2c(NCc3ccccc3-n3cc4cc(C#N)ccc4n3)nc(N3CCC(N)CC3)nc12 [Compound 120] | 0.1 to 1 | < 1 | > 1 | < 1 | 0.1 to 1 | A (A=greater than 200 fold) | A (A=greater than 200 fold) | B (B=less than 200 fold, but greater than 20 fold) | < 0.1 | < 1 |  |
| CC(C)c1cnn2c(NCc3ccccc3-c3cc4cc([N+](=O)[O-])ccc4[nH]3)nc(N3CCC(N)CC3)nc12 [Compound 121] | 0.1 to 1 | < 1 | > 1 | < 1 | 0.1 to 1 | A (A=greater than 200 fold) | B (B=less than 200 fold, but greater than 20 fold) | B (B=less than 200 fold, but greater than 20 fold) | < 0.1 |  |  |
| CC(C)c1cnn2c(NCc3ccccc3-c3cn4c(n3)CCCC4)nc(N3CCC(N)CC3)nc12 [Compound 122] | 0.1 to 1 | < 1 | > 1 | < 1 | 0.1 to 1 | A (A=greater than 200 fold) | B (B=less than 200 fold, but greater than 20 fold) | B (B=less than 200 fold, but greater than 20 fold) | < 0.1 | < 1 | < 1 |
| CC(C)c1cnn2c(NCc3ccccc3-c3ccc4[nH]cnc4c3)nc(N3CCC(N)CC3)nc12 [Compound 123] | 0.1 to 1 | < 1 | 0.1 to 1 | < 1 | < 0.1 | B (B=less than 200 fold, but greater than 20 fold) | B (B=less than 200 fold, but greater than 20 fold) | C (C=less than 20 fold) | < 0.1 | < 1 |  |
| CC(C)c1cnn2c(NCc3ccccc3-n3cc4cccc(NC(=O)CCCN(C)C)c4n3)nc(N3CCC(N)CC3)nc12 [Compound 126] | 0.1 to 1 | < 1 | > 1 | < 1 | 0.1 to 1 | A (A=greater than 200 fold) | B (B=less than 200 fold, but greater than 20 fold) | B (B=less than 200 fold, but greater than 20 fold) | < 0.1 |  |  |
| CC(=O)c1ccc2nn(-c3ccccc3CNc3nc(N4CCC(N)CC4)nc4c(C(C)C)cnn34)cc2c1 [Compound 127] | 0.1 to 1 | < 1 | > 1 | < 1 | 0.1 to 1 | A (A=greater than 200 fold) | B (B=less than 200 fold, but greater than 20 fold) | B (B=less than 200 fold, but greater than 20 fold) | < 0.1 |  |  |
| CC(C)c1cnn2c(NCc3ccccc3N3Cc4ccccc4C3)nc(N3CCC(N)CC3)nc12 [Compound 128] | 0.1 to 1 | < 1 | 0.1 to 1 | < 1 | < 0.1 | B (B=less than 200 fold, but greater than 20 fold) | B (B=less than 200 fold, but greater than 20 fold) | C (C=less than 20 fold) | < 0.1 | < 1 |  |
| CC(C)c1cnn2c(NCc3ccccc3-n3cc4c(n3)CCC(=O)C4)nc(N3CCC(N)CC3)nc12 [Compound 132] | > 1 | 1 to 10 | > 1 | 1 to 10 | 0.1 to 1 | A (A=greater than 200 fold) | B (B=less than 200 fold, but greater than 20 fold) | B (B=less than 200 fold, but greater than 20 fold) | < 0.1 |  |  |
| CC(C)c1cnn2c(NCc3ccccc3N3CC4CCCCC4C3)nc(N3CCC(N)CC3)nc12 (stereo not shown) [Compound 135] | > 1 | 1 to 10 | > 1 | 1 to 10 | > 1 | A (A=greater than 200 fold) | B (B=less than 200 fold, but greater than 20 fold) | B (B=less than 200 fold, but greater than 20 fold) | < 0.1 |  |  |
| CC(C)c1cnn2c(NCc3ccccc3-c3ccc4[nH]ncc4c3)nc(N3CCC(N)CC3)nc12 [Compound 137] | < 0.1 | < 1 | 0.1 to 1 | < 1 | < 0.1 | C (C=less than 20 fold) | C (C=less than 20 fold) | C (C=less than 20 fold) | < 0.1 |  |  |
| CC(C)c1cnn2c(NCc3ccccc3-c3ccc4c(c3)NC(=O)C(C)(C)O4)nc(N3CCC(N)CC3)nc12 [Compound 138] | 0.1 to 1 | < 1 | 0.1 to 1 | < 1 | < 0.1 | A (A=greater than 200 fold) | B (B=less than 200 fold, but greater than 20 fold) | C (C=less than 20 fold) | < 0.1 |  |  |
| CC(C)c1cnn2c(NCc3ccccc3-c3ccc4[nH]c(=O)[nH]c4c3)nc(N3CCC(N)CC3)nc12 [Compound 140] | 0.1 to 1 | 1 to 10 | 0.1 to 1 | 1 to 10 | < 0.1 | B (B=less than 200 fold, but greater than 20 fold) | B (B=less than 200 fold, but greater than 20 fold) | C (C=less than 20 fold) | < 0.1 | < 1 |  |
| CC(C)c1cnn2c(NCc3ccccc3-c3ccc4[nH]c(NC(=O)C5CC5)nc4c3)nc(N3CCC(N)CC3)nc12 [Compound 141] | 0.1 to 1 | < 1 | 0.1 to 1 | 1 to 10 | < 0.1 | B (B=less than 200 fold, but greater than 20 fold) | B (B=less than 200 fold, but greater than 20 fold) | C (C=less than 20 fold) | < 0.1 |  |  |
| CC(C)c1cnn2c(NCc3cccc4ccc(N)nc34)nc(N3CCC(N)CC3)nc12 [Compound 142] | 0.1 to 1 | 1 to 10 | > 1 | 1 to 10 | 0.1 to 1 | A (A=greater than 200 fold) | B (B=less than 200 fold, but greater than 20 fold) | B (B=less than 200 fold, but greater than 20 fold) | < 0.1 |  |  |
